Measured values: paper PMC10584882 (Communications Biology, 2023)
“And” between values parts separate entries of the source, which are not always exact repeats. Equal values may be shown once.

Key:
CatL = molecular target: T1, CatL (Homo sapiens, UniProt P07711); assay: Cathepsin inhibition test, CatL; assay type: biochemical; details: for Residual activity (Vi/V0): Fig. S3 panel b, single replicates
T1 construct: made in house

SARS-CoV-2-GFP = assay: microbe, parasite or virus in culture; assay type: cell-based; details: mean with standard error, read-out: VERO E6 EC50
human CatK = molecular target: T2, human CatK (Homo sapiens, UniProt P43235); assay: Cathepsin inhibition test, CatK; assay type: biochemical; details: Fig. S3 panel a, single replicates
T2 construct: made in house
T2 sequence (P43235 115-329): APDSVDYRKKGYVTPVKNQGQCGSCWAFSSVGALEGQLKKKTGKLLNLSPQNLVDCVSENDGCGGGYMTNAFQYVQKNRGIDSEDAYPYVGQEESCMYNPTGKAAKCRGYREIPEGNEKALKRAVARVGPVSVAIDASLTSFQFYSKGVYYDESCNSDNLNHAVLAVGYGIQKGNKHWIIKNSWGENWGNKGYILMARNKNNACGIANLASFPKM

human CatV = molecular target: T3, human CatV (Homo sapiens, UniProt O60911); assay: Cathepsin inhibition test, CatV; assay type: biochemical; details: Fig. S3 panel c, single replicates
T3 construct: made in house

[1] = inhibitor 0.105 nM, 0.000105 µM
[2] = inhibitor 0.189 nM, 0.000189 µM
[3] = inhibitor 0.612 nM, 0.000612 µM
[4] = inhibitor 1.103 nM, 0.001103 µM
[5] = inhibitor 1.985 nM, 0.001985 µM
[6] = inhibitor 3.572 nM, 0.003572 µM
[7] = inhibitor 11.547 nM, 0.011547 µM
[8] = inhibitor 20.833 nM, 0.020833 µM

T3 sequence (O60911 114-334): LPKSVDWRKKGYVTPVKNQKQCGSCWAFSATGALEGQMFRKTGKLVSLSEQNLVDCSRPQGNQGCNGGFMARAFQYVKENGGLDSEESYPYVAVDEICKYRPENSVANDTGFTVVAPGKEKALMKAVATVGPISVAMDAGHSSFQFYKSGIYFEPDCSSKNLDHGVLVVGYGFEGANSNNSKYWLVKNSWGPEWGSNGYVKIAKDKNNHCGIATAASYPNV
T1 sequence (P07711 114-333): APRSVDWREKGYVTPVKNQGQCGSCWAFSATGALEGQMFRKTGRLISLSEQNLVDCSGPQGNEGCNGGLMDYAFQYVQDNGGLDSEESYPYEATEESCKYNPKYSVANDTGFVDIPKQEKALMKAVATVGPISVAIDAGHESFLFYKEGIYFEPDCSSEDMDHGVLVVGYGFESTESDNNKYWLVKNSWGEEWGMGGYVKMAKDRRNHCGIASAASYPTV

CC(C)C[C@H](NC(=O)OCc1ccccc1)C(=O)N[C@@H](CC1CCNC1=O)C(O)S(=O)(=O)O (stereo partly drawn) [GC-376, reference compound]
Ki (CatL; mean with standard deviation and 95% confidence interval, pH 5.5, 37 °C): 0.259 nM
EC50 (SARS-CoV-2-GFP): 1070 ± 278 nM

CC(C)C[C@H](NC(=O)OCc1ccccc1)C(=O)N[C@@H](C[C@@H]1CCNC1=O)C(O)S(=O)(=O)[O-].[Na+] (stereo partly drawn) [GC376]
Residual activity (Vi/V0) (human CatK; inhibitor 0.010 nM, 10 pM): 1 and 1.168 and 0.9786 and 1.164 and 0.971
Residual activity (Vi/V0) (human CatK; inhibitor 0.018 nM, 18 pM): 1.045 and 0.9537 and 0.8787 and 1.068 and 0.891
Residual activity (Vi/V0) (human CatK; inhibitor 0.032 nM, 32 pM): 1.008 and 0.9541 and 1.052 and 1.097 and 0.9731
Residual activity (Vi/V0) (human CatK; inhibitor 0.058 nM, 58 pM): 0.9618 and 1.104 and 1
Residual activity (Vi/V0) (human CatK; [1]): 0.7126 and 0.7756 and 0.8857 and 0.9962 and 0.9154
Residual activity (Vi/V0) (human CatK; [2]): 0.687 and 0.7701 and 0.8381 and 0.9358 and 0.9354
Residual activity (Vi/V0) (human CatK; inhibitor 0.340 nM, 0.00034 µM): 0.5857 and 0.5656 and 0.9002 and 0.8293 and 0.7129
Residual activity (Vi/V0) (human CatK; [3]): 0.5454 and 0.3889 and 0.8833 and 0.6839 and 0.5394
Residual activity (Vi/V0) (human CatK; [4]): 0.3854 and 0.2819 and 0.6231 and 0.4604 and 0.4262
Residual activity (Vi/V0) (human CatK; [5]): 0.2545 and 0.4374 and 0.3426 and 0.223
Residual activity (Vi/V0) (human CatK; [6]): 0.1189 and 0.1895 and 0.3494 and 0.2326 and 0.2097
Residual activity (Vi/V0) (human CatK; inhibitor 6.430 nM, 0.00643 µM): 0.1182 and 0.1529 (2×) and 0.2134 and 0.1788
Residual activity (Vi/V0) (human CatK; [7]): 0.09726 and 0.09205 and 0.1617 and 0.0793 and 0.08002
Residual activity (Vi/V0) (human CatK; [8]): -0.01061 and 0.0635 and 0.09619 and 0.03724 and 0.04497
Residual activity (Vi/V0) (human CatK; inhibitor 37.500 nM, 0.0375 µM): 0.05483 and -0.02967 and 0.05665 and 0.01671
Residual activity (Vi/V0) (CatL; [2]): 0.8855 and 0.7968 and 0.4672 and 0.774 and 0.5436 and 0.6444 and 0.6384 and 0.5984 and 0.8706 and 0.7685
Residual activity (Vi/V0) (CatL; inhibitor 0.340 nM, 0.00034 µM): 0.6489 and 0.6117 and 0.2724 and 0.4771 and 0.3326 and 0.4189 and 0.397 and 0.4003 and 0.6575 and 0.5962
Residual activity (Vi/V0) (CatL; [3]): 0.6544 and 0.4591 and 0.279 and 0.4155 and 0.2277 and 0.7268 and 0.6794 and 0.7031 and 0.6487 and 0.6608
Residual activity (Vi/V0) (CatL; [4]): 0.448 and 0.2903 and 0.222 and 0.2673 and 0.2098 and 0.5439 and 0.5159 and 0.5223 and 0.4578 and 0.481
Residual activity (Vi/V0) (CatL; [5]): 0.2589 and 0.1857 and 0.1649 and 0.2093 and 0.1658 and 0.3522 and 0.3323 and 0.3518 and 0.2487 and 0.2662
Residual activity (Vi/V0) (CatL; [6]): 0.2062 and 0.1428 and 0.1169 and 0.1623 and 0.08981 and 0.207 and 0.1929 and 0.2019 and 0.196 and 0.2135
Residual activity (Vi/V0) (CatL; inhibitor 6.430 nM, 0.00643 µM): 0.139 and 0.09925 and 0.07105 and 0.118 and 0.08137 and 0.1289 and 0.127 and 0.1302 and 0.1295 and 0.1384
Residual activity (Vi/V0) (CatL; [7]): 0.09523 and 0.05909 and 0.04564 and 0.05812 and 0.04092 and 0.07914 and 0.07029 and 0.07354 and 0.08822 and 0.09606
Residual activity (Vi/V0) (CatL; [8]): 0.05198 and 0.03378 and 0.02298 and 0.02931 and 0.02488 and 0.02998 and 0.02815 and 0.0288 and 0.05176 and 0.05151
Residual activity (Vi/V0) (CatL; inhibitor 37.500 nM, 0.0375 µM): 0.02351 and 0.02002 and 0.01036 (2×) and 0.01453 and 0.0114 and 0.01064 and 0.01075 and 0.02418 and 0.02491
Residual activity (Vi/V0) (human CatV; inhibitor 0.010 nM, 10 pM): 1.0857 and 1.077 and 0.9774 and 0.8982 and 0.991 and 0.8512 and 1.1 and 0.8679
Residual activity (Vi/V0) (human CatV; inhibitor 0.018 nM, 18 pM): 1.336 and 1.266 and 0.9662 and 0.9302 and 1.04 and 0.8965 and 1.124 and 0.9597
Residual activity (Vi/V0) (human CatV; inhibitor 0.032 nM, 32 pM): 1.039 and 0.8981 and 0.9517 and 0.9088 and 1.019 and 0.9688 and 1.292 and 0.8604
Residual activity (Vi/V0) (human CatV; inhibitor 0.058 nM, 58 pM): 0.6518 and 0.5159 and 0.8896 and 0.8461 and 0.9826 and 0.9436 and 1.221 and 0.8427
Residual activity (Vi/V0) (human CatV; [1]): 0.9622 and 0.7389 and 0.9442 and 0.8081 and 0.8801 and 0.8142 and 1.285 and 0.7581
Residual activity (Vi/V0) (human CatV; [2]): 0.6972 and 0.4428 and 0.8137 and 0.7094 and 0.8934 and 0.7434 and 1.066 and 0.6389
Residual activity (Vi/V0) (human CatV; inhibitor 0.340 nM, 0.00034 µM): 0.6247 and 0.3497 and 0.4956 and 0.4527 and 0.4873 and 0.5939 and 0.9738 and 0.4752
Residual activity (Vi/V0) (human CatV; [3]): 0.3307 and 0.2457 and 0.4411 and 0.4505 and 0.4917 and 0.4681 and 0.5327 and 0.3674
Residual activity (Vi/V0) (human CatV; [4]): 0.3031 and 0.1765 and 0.2948 and 0.2868 and 0.2798 and 0.3141 and 0.3564 and 0.2414
